# Like-named read-outs stand apart in the source and are kept apart here.
# Tests used:
# beagle dogs = conditions: dog, in vivo, 1 month
# juvenile rats = conditions: rat, in vivo, 1 month
# in vivo = conditions: tumor, 50 mg/kg
# [1] = test system: platinum-sensitive recurrent epithelial ovarian, fallopian tube, or primary peritoneal cancer; conditions: for PFS Median: niraparib 300 mg QD; for HR, CFI / HR, TFST: niraparib versus placebo
# From the text: All patients had received at least two prior platinum-containing regimens and were in response (complete or partial) to their most recent platinum-based regimen. Eligible patients were assigned to one of two cohorts based on the results of a germline BRCA mutation test. […] Randomization occurred within 8 weeks of the last dose of the most recent platinum-containing regimen. […] Clinic visits occurred each cycle (4 weeks ±3 days). […] Prior to unblinding of the study, tumors of patients randomized to the non-gBRCAmut cohort were tested for the presence of homologous recombination deficiency (HRD) using the Myriad myChoice® HRD test, which evaluates three independent biomarkers of tumor genome instability: loss of heterozygosity, telomeric allelic imbalance, and large-scale state transitions. Tumors with homologous recombination deficiencies and those with somatic BRCA mutations were defined as HRD positive (HRDpos). The primary efficacy analysis for PFS was prospectively defined and assessed for the gBRCAmut cohort. The primary efficacy analysis for PFS was prospectively defined and assessed for the non-gBRCAmut cohort with a hierarchical testing schema. In the first step, PFS was assessed in the group of patients with HRDpos tumors and if significant, PFS was assessed in the overall non-gBRCAmut cohort. Secondary efficacy endpoints included chemotherapy-free interval (CFI), time to first subsequent therapy (TFST), PFS after the first subsequent therapy (PFS2), time to second subsequent therapy (TSST) and OS (overall survival).
# [2] = test system: recurrent solid tumors that exhibit a BRCAness mutational signature; conditions: oral niraparib in combination with TSR-042, patients between 6 months and 18 years
# [3] = drug substance
# Procedure: The particle size analyzer can determine particle size using low-angle laser light scattering and calculates results in % volume based on equivalent spheres. Volume distributions for the D10, D50, D90, D4,3, and D3,2 can be determined. The suspension is added to the tank until the obscuration is in range, targeting a 10% obscuration. Measurements are taken once the obscuration remains consistent.
# These batches were divided into sub-lots at various time intervals and each sub-lot was analyzed for content uniformity. The batches used are described in Table 12.
smiles,measurement,setting,value
"NC(=O)c1cccc2cn(-c3ccc([C@@H]4CCCNC4)cc3)nc12 [Niraparib, niraparib]",tumor regression,"tumor models; 50 mg/kg, daily dosing",tumor regression
same,tumor regression,"tumor models; dose of 75 mg/kg, same model",did not result in tumor regression
same,no-observed-adverse-effect-level,beagle dogs,6 mg/kg/day
same,no-observed-adverse-effect-level,juvenile rats,10 mg/kg/day
same,concentration at 6 h,in vivo,4570 ng/mL
same,PFS Median,"[1]; HRDpos group of the non-gBRCAmut cohort, N = 106",12.9 months
same,Median CFI (chemotherapy-free interval),[1]; gBRCAmut cohort,22.8 months
same,Median TFST (time to first subsequent therapy),[1]; gBRCAmut cohort,21.0 months
same,PFS Median,"[1]; gBRCAmut cohort, N = 138",21.0 months
same,"HR, CFI",[1]; gBRCAmut cohort,0.26
same,"HR, TFST",[1]; gBRCAmut cohort,0.31
same,Median CFI (chemotherapy-free interval),[1]; non-gBRCAmut cohort,12.7 months
same,Median TFST (time to first subsequent therapy),[1]; non-gBRCAmut cohort,11.8 months
same,"HR, CFI",[1]; non-gBRCAmut cohort,0.50
same,"HR, TFST",[1]; non-gBRCAmut cohort,0.55
same,PFS Median,"[1]; overall non-gBRCAmut cohort, N = 234",9.3 months
same,pKa,physchem,9.95
same,solubility,"physchem; aqueous media across the physiological pH range, aqueous buffer",700 to 1100 µg/mL
same,"treatment of pediatric cancer patients, result of the study",[2],can be used successfully
"Cc1ccc(S(=O)(=O)O)cc1.NC(=O)c1cccc2cn(-c3ccc([C@@H]4CCCNC4)cc3)nc12 [niraparib tosylate monohydrate, 2-{4-[(3S)-piperidin-3-yl]phenyl}-2H-indazole 7-carboxamide 4-methylbenzenesulfonate hydrate (1:1:1)]",bulk density,[3],0.34-0.45 g/cc
same,tapped density,[3],0.53-0.66 g/cc
